Earlier results as cited in patent publication US6627219B2, “Oily capsule preparation and the method for preparing same” (Pharmaceutical Industry Technology and Development Center, priority 2000, dated 2003).
Like-named read-outs stand apart in the source and are kept apart here.

How the values were obtained:
[1] = not given; remark: listed apart in the source

COc1ccc2[nH]c([S+]([O-])Cc3ncc(C)c(OC)c3C)nc2c1 (stereo not drawn) [Omeprazole, 5-methoxy-2(((4-methoxy-3,5-dimethyl-2-pyridinyl)methyl)sulfinyl)1H-benzimidazole]
solubility in water: hardly soluble in water
stability ([1]; basic medium of a pH higher than 7): stable
stability ([1]; neutral or acid medium): easily degraded or denatured
